Structures can show the parent of a compound that is named as a salt.

In the assay the target is T1, human GIRK1/4 channels (Homo sapiens, UniProt P48544+P48549).
T1 construct: Full-length human GIRK1 cDNA was cloned from HuH cell- and HeLa cell-derived cDNA libraries; Full-length GIRK4 cDNA was amplified from a human heart cDNA library; expressed in transfected cells; host or cells: FLP-IN-CHO cells (Invitrogen)
T1 sequence (P48549 1-501): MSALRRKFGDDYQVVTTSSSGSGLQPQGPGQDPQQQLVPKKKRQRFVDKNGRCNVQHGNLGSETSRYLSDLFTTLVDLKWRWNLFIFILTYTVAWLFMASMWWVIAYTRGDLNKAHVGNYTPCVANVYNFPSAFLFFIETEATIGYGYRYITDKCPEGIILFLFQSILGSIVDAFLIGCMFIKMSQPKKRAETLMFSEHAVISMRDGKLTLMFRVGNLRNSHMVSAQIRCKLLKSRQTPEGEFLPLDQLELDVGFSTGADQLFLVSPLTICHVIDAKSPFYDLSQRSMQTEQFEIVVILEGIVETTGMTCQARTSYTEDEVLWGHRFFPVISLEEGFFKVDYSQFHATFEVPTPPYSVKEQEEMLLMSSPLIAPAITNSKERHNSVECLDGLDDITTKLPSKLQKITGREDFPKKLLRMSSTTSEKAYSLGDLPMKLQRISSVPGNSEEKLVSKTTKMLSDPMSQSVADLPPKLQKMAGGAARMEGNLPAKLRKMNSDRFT
T1 sequence (P48544 1-419): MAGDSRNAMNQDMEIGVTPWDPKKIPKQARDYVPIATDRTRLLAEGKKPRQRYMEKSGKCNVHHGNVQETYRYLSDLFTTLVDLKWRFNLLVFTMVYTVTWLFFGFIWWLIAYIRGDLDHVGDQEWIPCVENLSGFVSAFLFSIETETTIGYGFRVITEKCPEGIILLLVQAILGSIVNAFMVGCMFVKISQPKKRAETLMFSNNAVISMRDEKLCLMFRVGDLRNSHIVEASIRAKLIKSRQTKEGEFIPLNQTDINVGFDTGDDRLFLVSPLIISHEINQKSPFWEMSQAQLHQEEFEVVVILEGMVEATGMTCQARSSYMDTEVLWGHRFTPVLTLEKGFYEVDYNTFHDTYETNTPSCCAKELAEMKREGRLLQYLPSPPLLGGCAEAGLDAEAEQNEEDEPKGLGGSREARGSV
Kind of assay: Measurement of human GIRK1/4 channel current by whole-cell patch clamp method (human GIRK1/4-expressing CHO cell line). To be noted: whole-cell patch clamp, human GIRK1/4-expressing CHO cells; step end current at −120 mV; test compound 0.1, 1, 10 μM; read-out: GIRK¼ IC50. The assay is classed as cell-based. How it is done:
(2) Production of CHO Cell Line Expressing Human GIRK1/4
CHO cell lines stably expressing human GIRK1/4 channels were prepared in the following manner.
Full-length human GIRK1 cDNA was cloned from HuH cell- and HeLa cell-derived cDNA libraries. Full-length GIRK4 cDNA was amplified from a human heart cDNA library (produced by Clontech Laboratories, Inc.) by PCR using synthetic primers shown in Table 1, and cloned into the Eco-RI restriction enzyme site of pCR-Blunt (produced by Invitrogen Corporation) or into the HincII site of pUC118 (produced by Takara Bio, Inc.).
The obtained human GIRK1 and GIRK4 cDNA sequences correspond to known sequences (NCBI database: GIRK1 (NM_002239) and GIRK4 (NM_000890) respectively). The obtained GIRK1 and GIRK4 cDNA sequences were cloned into the Eco-RI restriction enzyme site of pCR-Blunt (available from Invitrogen Corporation) or into the HincII site of pUC118 (available from Takara Bio, Inc.). A GIRK4 expression vector was constructed by insertion into the BamHI-XhoI site of pcDNA5/FRT. A GIRK1 expression vector was constructed by insertion into the KpnI-XhoI site of pcDNA3.1(+) or pCAG_neo. FLP-IN-CHO cells (produced by Invitrogen Corporation) were transfected with human GIRK1 and GIRK4 expression vectors by using Lipofectamine 2000 (produced by Invitrogen Corporation) according to the protocol enclosed with the reagent or using an electronic induction method (“Nucleofector Kit-T”, produced by Amaxa). First, the cells transfected with the GIRK4 expression vector were cultured in a 10% serum-containing F12 medium (produced by Sigma) supplemented with 600 μg/ml of hygromycin in an incubator with 5% carbon dioxide at 37° C. Then the cells expressing GIRK4 were transfected with the GIRK1 expression vector and were cultured in 10% serum-containing F12 medium supplemented with 350 μg/ml of G418 and 600 μg/ml of hygromycin in an incubator with 5% carbon dioxide at 37° C. to select GIRK1/4 expressing cell lines. Cell populations whose growth was observed after about 2 weeks were isolated using cloning rings, and the obtained single colonies were proliferated. RNA was extracted from single colonies, and single-stranded cDNA was synthesized by a cDNA synthesis kit (produced by Invitrogen Corporation), and the amount of expression was quantified at the mRNA level by real-time PCR (Applied Biosystems, Ltd.). Finally, the expressed current was analyzed by patch clamp method described below. The cell lines expressing a current of 500 pA or more per cell were selected as channel-expressing cell lines for activity measurement by patch clamping method.
(4) Measurement of Ion Channel Current by Patch Clamp Method (Human GIRK1/4-Expressing CHO-K1 Cell Line)
An experiment was carried out using a patch clamp setup at room temperature (20 to 26° C.). A perfusion chamber having a diameter of 20 mm (flow rate: about 5 ml/min) was mounted on the stage of a phase-contrast inverted microscope (produced by Nikon Corporation) placed on a vibration isolation table. A poly-L-lysine (produced by Sigma)-coated coverslip (diameter: 15 mm, produced by Matsunami Glass Ind., Ltd.) on which human GIRK1/4-expressing cells were cultured was placed in the perfusion chamber.
Hyperpolarizing stimulation pulses were applied and ionic current was recorded using a patch clamp amplifier (EPC-7 or EPC-7 PLUS, manufactured by HEKA) and a personal computer (manufactured by IBM Corp.) in which software for data acquisition and analysis of ion channel current (PULSE 8.77, manufactured by HEKA) was installed. The current was measured in the whole-cell configuration of the patch-clamp technique. The tip (resistance: 2 to 4 MΩ) of a borosilicate glass pipette (produced by Sutter Instrument Co.) was gently placed on the cell membrane by using a three-dimensional mechanical micromanipulator (produced by Shoshin EM Corporation). […] Subsequently, stronger suction was applied to break the cell membrane. […]

As for `CCN1C(=O)C(C)(C)C(=O)N(C)c2cc(OCCCN(CCn3ccc4oc(C)cc4c3=O)Cc3cnccc3C)ccc21` [Example 573, 1-ethyl-3,3,5-trimethyl-7-{3-[[2-(2-methyl-4-oxo-4H-furo[3,2-c]pyridin-5-yl)ethyl]-(4-methylpyridin-3-ylmethyl)amino]propoxy}-1,5-dihydrobenzo[b][1,4]diazepine-2,4-dione], the IC50 worked out at 1500 nM. Under `CCN1C(=O)C(C)(C)C(=O)N(C)c2cc(OCCCN(CCn3ccc4ccoc4c3=O)Cc3cccs3)ccc21` [Example 417] stands 980 nM; under `CCN1C(=O)C(C)(C)C(=O)N(C)c2cc(OCCCN(CCn3ccc4occc4c3=O)Cc3ccc(C)nc3C)ccc21` [Example 629, 7-(3-{(2,6-dimethylpyridin-3-ylmethyl)-[2-(4-oxo-4H-furo[3,2-c]pyridin-5-yl)ethyl]amino}propoxy)-1-ethyl-3,3,5-trimethyl-1,5-dihydrobenzo[b][1,4]diazepine-2,4-dione dihydrochloride], 170 nM.

As for `CCN1C(=O)C(C)(C)C(=O)N(C)c2cc(OCCCN(CCn3ccc4ccoc4c3=O)Cc3ccc(C(F)(F)F)cc3)ccc21` [Example 395], the IC50 was 330 nM. Under `CCN1C(=O)C(C)(C)C(=O)N(C)c2cc(OCCCN(CCn3ccc4ccccc4c3=O)Cc3ccco3)ccc21` [Example 132] stands 270 nM. As to `CCN1C(=O)C(C)(C)C(=O)N(C)c2cc(OCCCN(CCc3cccnc3)Cc3ccccc3)ccc21` [Example 200], the IC50 came out at 590 nM. Take `CCN1C(=O)C(C)(C)C(=O)N(C)c2cc(OCCCN(CCn3ccc4ccoc4c3=O)Cc3ccncc3)ccc21` [Example 31, 1-ethyl-3,3,5-trimethyl-7-(3-{[2-(7-oxo-7H-furo[2,3-c]pyridin-6-yl)ethyl]pyridin-4-ylmethylamino}propoxy)-1,5-dihydrobenzo[b][1,4]diazepine-2,4-dione dihydrochloride]: the IC50 is 2900 nM. Regarding `CCCc1ncccc1CN(CCCOc1ccc2c(c1)N(C)C(=O)C(C)(C)C(=O)N2CC)CCn1ccc2oc(C)cc2c1=O` [Example 611, 1-ethyl-3,3,5-trimethyl-7-{3-[[2-(2-methyl-4-oxo-4H-furo[3,2-c]pyridin-5-yl)ethyl]-(2-propylpyridin-3-ylmethyl)amino]propoxy}-1,5-dihydrobenzo[b][1,4]diazepine-2,4-dione dihydrochloride], the half-maximal inhibitory concentration (IC50) is 370 nM. As for `Cc1ccccc1CN(CCCOc1ccc2c(c1)N(C)C(=O)C(C)(C)C(=O)N2C)CCc1cccnc1` [Example 50, 1,3,3,5-tetramethyl-7-{3-[(2-methylbenzyl)-(2-pyridin-3-ylethyl)amino]propoxy}-1,5-dihydrobenzo[b][1,4]diazepine-2,4-dione dihydrochloride], the IC50 was found to be 460 nM. Under `CCN1C(=O)C(C)(C)C(=O)N(C)c2cc(OCCCN(CCc3cccnc3)Cc3ccncc3)ccc21` [Example 8, 1-ethyl-3,3,5-trimethyl-7-{3-[(2-pyridin-3-ylethyl)pyridin-4-ylmethylamino]propoxy}-1,5-dihydrobenzo[b][1,4]diazepine-2,4-dione trihydrochloride] stands 930 nM. Next, `CCN1C(=O)C(C)(C)C(=O)N(C)c2cc(OCCCN(CCc3cccnc3)Cc3ccccc3-c3cccnc3)ccc21` [Example 242]: 220 nM; `CN(CCN(CCCOc1ccc2c(c1)N(C)C(=O)C(C)(C)C(=O)N2C)Cc1ccncc1)C(=O)c1ccccc1` [Example 45, N-methyl-N-(2-{pyridin-4-ylmethyl-[3-(1,3,3,5-tetramethyl-2,4-dioxo-2,3,4,5-tetrahydro-1H-benzo[b][1,4]diazepin-7-yloxy)propyl]amino}ethyl)benzamide dihydrochloride]: 2150 nM; `CCN1C(=O)C(C)(C)C(=O)N(C)c2cc(OCCCN(CCn3ccc4ccoc4c3=O)Cc3ccccc3C)ccc21` [Example 398]: 490 nM. Next, `CCN1C(=O)C(C)(C)C(=O)N(C)c2cc(OCCCN(CCn3ccc4occc4c3=O)Cc3cccnc3)ccc21` [Example 551, 1-ethyl-3,3,5-trimethyl-7-(3-{[2-(4-oxo-4H-furo[3,2-c]pyridin-5-yl)ethyl]pyridin-3-ylmethylamino}-propoxy)-1,5-dihydrobenzo[b][1,4]diazepine-2,4-dione]: 5200 nM; `CN1C(=O)C(C)(C)C(=O)N(C)c2cc(OCCCN(CCc3cccnc3)Cc3ccnc4ccccc34)ccc21` [Example 51, 1,3,3,5-tetramethyl-7-{3-[(2-pyridin-3-ylethyl)-(quinolin-4-ylmethyl)amino]propoxy}-1,5-dihydrobenzo[b][1,4]diazepine-2,4-dione trihydrochloride]: 1500 nM; `CCN1C(=O)C(C)(C)C(=O)N(C)c2cc(OCCCN(CCn3ccc4occc4c3=O)Cc3cccnc3C)ccc21` [Example 575, 1-ethyl-3,3,5-trimethyl-7-(3-{(2-methylpyridin-3-ylmethyl)-[2-(4-oxo-4H-furo[3,2-c]pyridin-5-yl)ethyl]-amino}propoxy)-1,5-dihydrobenzo[b][1,4]diazepine-2,4-dione]: 500 nM. On to `CCN1C(=O)C(C)(C)C(=O)N(CC)c2cc(OCCCN(CCc3cccnc3)Cc3ccncc3)ccc21` [Example 14, 1,5-diethyl-3,3-dimethyl-7-{3-[(2-pyridin-3-ylethyl)pyridin-4-ylmethylamino]propoxy}-1,5-dihydrobenzo[b][1,4]diazepine-2,4-dione trihydrochloride], for which the half-inhibitory concentration (IC50) stood at 720 nM.

As a reminder, the IC50 is the concentration that gives 50% inhibition.

(Values after patent US8664217B2, “Benzodiazepine compound and pharmaceutical composition” (Otsuka Pharmaceutical Co., Ltd., priority 2008, dated 2014).)
